Test results from patent US8609698B2, “Substituted dipyridyl-dihydropyrazolones and use thereof” (Bayer Intellectual Property GmbH, priority 2006, dated 2013).
Where a name gives a salt, the structure may show the parent alone.

Target: HIF prolyl hydroxylase
Assay: Inhibition of the activity of HIF prolyl hydroxylase (VBC complex binding test)
Format: biochemical
Text: 1. In Vitro Tests for Determination of the Activity and Selectivity of HIF Prolyl 4-Hydroxylase Inhibitors 1.a) Inhibition of the Activity of HIF Prolyl Hydroxylase:
Hydroxylated HIF bonds specifically to the von Hippel-Lindau protein-elongin B-elongin C complex (VBC complex). This interaction occurs only if HIF is hydroxylated on a conserved prolyl radical. It is the basis for the biochemical determination of HIF prolyl hydroxylase activity.
A clear 96-well microtiter plate coated with NeutrAvidin HBC (Pierce) is incubated with blocker casein for 30 minutes. The plate is then washed three times with 200 μl each time of wash buffer (50 mM Tris, pH 7.5, 100 mM NaCl, 10% (v/v) blocker casein, 0.05% (v/v) Tween 20) per well. […] This peptide serves as a substrate for the prolyl hydroxylation and is bonded to the microtiter plate. After incubation for 60 minutes, the plate is washed three times with wash buffer, incubated with 1 mM biotin in blocker casein for 30 minutes and then washed again three times with wash buffer.
To carry out the prolyl hydroxylase reaction, the peptide substrate bonded to the plate is incubated with a cell lysate containing prolyl hydroxylase for 1 to 60 minutes. The reaction takes place in 100 μl reaction buffer (20 mM Tris, pH 7.5, 5 mM KCl, 1.5 mM MgCl2, 1 μM-1 mM 2-oxoglutarate, 10 μM FeSO4, 2 mM ascorbate) at room temperature. The reaction mixture moreover contains various concentrations of the prolyl hydroxylase inhibitor to be tested. The test substance is preferably, but not exclusively, employed at concentrations of between 1 nM and 100 μM. The reaction is stopped by washing the plate three times with wash buffer.
For quantitative determination of the prolyl hydroxylation, a fusion protein which contains both thioredoxin from E. coli and the VBC complex in 80 μl bonding buffer (50 mM Tris, pH 7.5, 120 mM NaCl) is added. After 15 minutes, 10 μl of a solution of polyclonal anti-thioredoxin antibodies from rabbit in bonding buffer are added. After a further 30 minutes, 10 μl of a solution of anti-rabbit immunoglobulin coupled to horseradish peroxidase in bonding buffer are added. After incubation at room temperature for 30 minutes, the plate is washed three times with wash buffer in order to remove non-bonded VBC complex and antibodies. To determine the amount of bonded VBC complex, the plate is incubated with TMB for 15 minutes. The color reaction is ended by addition of 100 μl 1 M sulfuric acid. The amount of bonded VBC complex is determined by measurement of the optical density at 450 nm. It is proportional to the amount of hydroxylated proline in the peptide substrate.
Alternatively, a VBC complex coupled to europium (Perkin Elmer) can be used for detection of the prolyl hydroxylation. In this case, the amount of bonded VBC complex is determined by the fluorescence with respect to time. The use of VBC complex labeled with [^35S]-methionine is moreover possible. For this, the radioactively labeled VBC complex can be prepared by in vitro transcription-translation in reticulocyte lysate.

IC50 [nM] | SMILES
1600 | Cc1ccccc1NC(=O)OCc1ccc(-n2[nH]cc(-c3cccnc3)c2=O)nc1 [Example 80]
5200 | Cc1ccnc(-n2[nH]cc(-c3cncc(C#N)c3)c2=O)c1 [Example 8, 5-[2-(4-Methylpyridin-2-yl)-3-oxo-2,3-dihydro-1H-pyrazol-4-yl]pyridine-3-carbonitrile hydrochloride]
260 | O=C(O)c1ccc(-n2[nH]cc(-c3cncc(Br)c3)c2=O)nc1 [Example 10, 6-[4-(5-Bromopyridin-3-yl)-5-oxo-2,5-dihydro-H-pyrazol-1-yl]pyridine-3-carboxylic acid hydrochloride]
910 | CC(C)(C)NC(=O)c1ccc(-n2[nH]cc(-c3cccnc3)c2=O)nc1 [Example 18, N-tert-Butyl-6-(5-oxo-4-pyridin-3-yl-2,5-dihydro-1H-pyrazol-1-yl)pyridine-3-carboxamide hydrochloride]
6300 | COCCNCc1ccc(-n2[nH]cc(-c3cccnc3)c2=O)nc1 [Example 5, 2-(5-{[(2-Methoxyethyl)amino]methyl}pyridin-2-yl)-4-pyridin-3-yl-1,2-dihydro-3H-pyrazol-3-one hydrochloride]
3240 | O=c1c(-c2cccnc2)c[nH]n1-c1ccc(Cn2cccc2)cn1 [Example 22, 4-Pyridin-3-yl-2-[5-(1H-pyrrol-1-ylmethyl)pyridin-2-yl]-1,2-dihydro-3H-pyrazol-3-one hydrochloride]
900 | O=C(NCc1ccnc(-n2[nH]cc(-c3cccnc3)c2=O)c1)Nc1c(Cl)cccc1Cl [Example 65]
